How the values were obtained:
Format in all cases: functional
B16 [1] = test: Cytotoxicity against B16 melanoma cell line.; settings: Mus musculus, read-out: ED50 (the source's name)
Tubulin (Bos taurus) [2] = target: T1, Tubulin (Bos taurus) (UniProt Q6B856+Q862L2+Q862F3); test: Concentration to stimulate the assembly of tubulin into microtubules.
[3] = Ratio of ED50 of taxol to ED50 from cytotoxicity against B16 melanoma cell lines
[4] = Ratio of ED50 of taxol to ED50 from tubulin binding assay
B16 [5] = test: Cytotoxicity against B16 melanoma cell line.62% inhibition at 42 uM.; settings: Mus musculus, read-out: ED50 (the source's name)
Tubulin (Bos taurus) [6] = target: T1, Tubulin (Bos taurus); test: Concentration to stimulate the assembly of tubulin into microtubules at a dose of […]
B16 [7] = test: Cytotoxicity against B16 melanoma cell line.40% inhibition at 1 uM; settings: Mus musculus, read-out: ED50 (the source's name)

SMILES	EC50 (B16 [1])	ED50 (Tubulin (Bos taurus) [2])	Ratio [3]	Ratio [4]	EC50 (B16 [5])	ED50 (Tubulin (Bos taurus) [6])	EC50 (B16 [7])
CC(=O)O[C@H]1C(=O)[C@@]2(C)[C@H]([C@H](OC(=O)c3ccccc3)[C@]3(O)C[C@H](OC(=O)[C@H](O)[C@@H](NC(=O)c4ccc(Cl)cc4)c4ccccc4)C(C)=C1C3(C)C)[C@]1(OC(C)=O)CO[C@@H]1C[C@@H]2O	43 nM	1700 nM	1.5	2.4			
CC(=O)O[C@H]1C(=O)[C@@]2(C)[C@H]([C@H](OC(=O)c3ccccc3)[C@]3(O)C[C@H](OC(=O)[C@H](O)[C@@H](NC(=O)c4ccccc4)c4ccc(Cl)cc4)C(C)=C1C3(C)C)[C@]1(OC(C)=O)CO[C@@H]1C[C@@H]2O	61 nM	1300 nM	2.2	1.9			
O=C(N[C@@H](c1ccccc1)[C@@H](O)C(=O)O)c1ccccc1 (relative stereo)			>360	> 14	> 10000 nM	> 10000 nM	
CC(=O)O[C@H]1C(=O)[C@@]2(C)[C@H]([C@H](OC(=O)c3ccccc3)[C@]3(O)C[C@H](O)C(C)=C1C3(C)C)[C@]1(OC(C)=O)CO[C@@H]1C[C@@H]2O [BACCATIN III]			>36	> 14		> 10000 nM	> 1000 nM
CC(=O)O[C@H]1C(=O)[C@@]2(C)[C@H]([C@H](OC(=O)c3ccccc3)[C@]3(O)C[C@H](OC(=O)[C@H](O)[C@@H](NC(=O)c4ccccc4)c4ccccc4)C(C)=C1C3(C)C)[C@]1(OC(C)=O)CO[C@@H]1C[C@@H]2O [PACLITAXEL]	28 nM	700 nM	1	1			

Reference: ChEMBL document CHEMBL1125352, “Synthesis of biologically active taxol analogues with modified phenylisoserine side chains” (1992)
